Data set [1] relates to A375 cells. The data set can be described thus: Tumor cell line proliferation assay (CellTiter Glo), A375. The format is cell-based. The note with it: Homo sapiens, read-out: A375 (V599E) Cell Proliferation IC50. On the technique in general: In ATP-based viability assays light output follows the ATP content of the culture.
Data set [2] addresses ERK2 enzyme (Homo sapiens (Human), UniProt P28482). The data set can be described thus: Inhibition assay of ERK (Z'-LYTE kinase assay, Ser/Thr 3 peptide substrate). It counts as biochemical. The note with it: 100 μM ATP.
In data set [3] the test system is WM-266-4 cells. Put plainly: Tumor cell line proliferation assay (CellTiter Glo), WM-266-4. To be noted: Homo sapiens, WM 266-4, 96 h, read-out: WM-266-4 (V599D) Cell Proliferation IC50 (nM).
Experimental: (§1) The ability of one or more compounds of the invention to inhibit tumor cell line proliferation was determined according to standard procedures known in the art. For instance, an in vitro cellular proliferation assay was performed to measure the metabolic activity of live cells. […] The cells were incubated at 37° C. under 5% CO2 for two hours to allow for attachment to the plates. Compounds were first diluted in 1:3 dilutions in 100% DMSO at 250× the desired concentration, and then further diluted (1:50) in 10% DMEM growth medium. The diluted compounds were added to the cell plate (25 μL for a 5× dilution) and the cells are incubated with compounds (0.4% DMSO in 10% FBS DMEM) for 96 hours at 37° C. under 5% CO2. The cell control wells were added with vehicle only (0.4% DMSO in 10% FBS DMEM or in 10% FBS RPMI). Each concentration of the compounds was tested in duplicates. After 96 hours of the compound treatment, CellTiter Glo reagent (Promega) was added at a 1:5 dilution to each well of the cell plate and the cell plate was placed at room temperature for 30 minutes. The luminescence of the wells was determined using a Tecan plate reader.
For data set [4], the system named is phospho-RSK1 (Thr359/Ser363) in A375 (Braf V600E) cells. Put plainly: Phospho-p90 RSK ELISA using A375 (Braf V600E) cells. The format is cell-based. The note with it: Homo sapiens, A-375, 2 hours compound treatment, read-out: Cellular Phospho-p90RSK IC50. The protocol:
In preparation for the assay, an ELISA plate with the pre-coated goat anti-mouse antibody (Thermo Scientific) was treated with a mouse anti-human RSK1 antibody (monoclonal, Invitrogen) at 1:800 dilution (150 ng/well) in PBS, and the plate was placed on a plate shaker at 4° C. overnight. […] After two hours of the compound treatment, the supernatant was removed from the cell plate, and cells were lysed in 100 μl per well of cell lysis buffer (Cell Signaling Technologies) containing phosphatase and protease inhibitors (Cell Signaling Technologies) on a plate shaker at 4° C. for 20 minutes. The ELISA plate was washed four times with ELISA wash buffer (Thermo Scientific) prior to addition of 100 μL cell lysate. The lysate was incubated on the ELISA plate with gentle shaking at room temperature for 2 hours. The contents of the wells were removed, and the ELISA plate was washed four times with wash buffer, and incubated with 100 μL per well of anti-phospho-RSK1 (Thr359/Ser363) rabbit monoclonal antibody (Millipore) at dilution of 1:1000 in StartingBlock buffer (Thermo Scientific) on a plate shaker at room temperature for 1 hour. The contents of the wells were removed, the ELISA plate was washed four times with wash buffer, and was incubated with 100 μL per well of goat anti-rabbit HRP (Thermo Scientific) at dilution of 1:3000 in StartingBlock buffer (Thermo Scientific) on a plate shaker at room temperature for 1 hour. The contents of the wells were removed, the ELISA plate was washed four times with wash buffer, and then incubated with 100 μL per well of TMB substrate solution (Thermo Scientific) on a plate shaker at room temperature for 20 minutes. Finally, 100 μL of TMB stop solution (Thermo Scientific) was added to each well and the absorbance is measured at 450 nm on a Tecan plate reader.
(In general: ELISA stands for enzyme-linked immunosorbent assay.)

In data set [5] the test system is H358 (Kras, G12C) cells. Put plainly: Tumor cell line proliferation assay (CellTiter Glo), H358. The note with it: Homo sapiens, NCI-H358, 96 h, read-out: H358 (Kras, G12C) Cell Proliferation IC50 (nM).
Experimental: as §1
For data set [6] the following is noted: PBS pH 7.4, 37° C., over the course of 24 hours; cited from earlier work.
The conditions of data set [7]: control or reference compounds, 5 μM; cited from earlier work.
The mark [8] stands for this setting: In vitro, ERK2 enzyme 0.47 ng/μL.

These results are taken from patent publication US9624228B2, “Inhibitors of ERK and methods of use” (KURA ONCOLOGY, INC., priority 2013, dated 2017).

Each structure is given as a SMILES string. Like-named read-outs stand apart in the source and are kept apart here.

Sequence of ERK2 enzyme (P28482 whole entry): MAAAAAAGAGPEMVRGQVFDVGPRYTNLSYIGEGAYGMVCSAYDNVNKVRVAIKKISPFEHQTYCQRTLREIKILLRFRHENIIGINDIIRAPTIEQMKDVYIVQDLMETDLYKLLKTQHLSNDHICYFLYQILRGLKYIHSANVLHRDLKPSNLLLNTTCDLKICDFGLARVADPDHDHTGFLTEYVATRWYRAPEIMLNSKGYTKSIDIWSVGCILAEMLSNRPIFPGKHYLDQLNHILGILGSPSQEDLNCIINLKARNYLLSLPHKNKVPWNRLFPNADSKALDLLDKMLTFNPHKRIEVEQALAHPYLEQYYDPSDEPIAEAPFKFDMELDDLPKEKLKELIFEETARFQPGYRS

Take `Cc1cc(-c2n[nH]c3cc4[nH]c(=O)c(Cc5ccccc5)cc4cc23)ccn1` [Compound 6]: the IC50 fell in the range of 250 to 1000 nM in data set [1] (A-375, 96 h); 50 to 250 nM in data set [2] (In vitro ERK2 enzyme); 250 to 1000 nM in data set [3].

For `O=C1Nc2cc3[nH]nc(-c4ccnnc4)c3cc2CN1Cc1cccc(Cl)c1` [Compound 66], the IC50 was under 50 nM in data set [2] (In vitro ERK2 enzyme) and 250 to 1000 nM in data set [4].

As for `Cc1cc(-c2n[nH]c3cc4c(cc23)CN([C@@H]2CCCN(C(=O)c3cccc(Cl)c3)C2)C(=O)N4)ccn1` [Compound 152], the IC50 is under 50 nM in data set [2] (In vitro ERK2 enzyme) and 250 to 1000 nM in data set [4].

Turning to `Cc1cc(-c2n[nH]c3cc4[nH]c(=O)c(C(C)c5cccc(Cl)c5)cc4cc23)ccn1` (stereo not drawn) [Compound 181], the IC50 in data set [1] (A-375, 96 hours) was under 250 nM; in data set [2] (In vitro ERK2 enzyme) it was 50 to 250 nM; in data set [5] it was under 250 nM; in data set [4] it was under 250 nM.

For the compound `Cc1cc(-c2n[nH]c3cc4[nH]c(=O)c(C(C)c5ccc(F)cc5)cc4cc23)ccn1` (stereo not drawn) [Compound 197], the IC50 in data set [1] (A-375, 96 h) was under 250 nM; in data set [2] (In vitro ERK2 enzyme) it was under 50 nM; in data set [5], under 250 nM; in data set [4], under 250 nM.

Regarding `Cc1cc(-c2n[nH]c3cc4[nH]c(=O)c([C@H](C)c5ccc(F)cc5)cc4cc23)ccn1` [Compound 288], the IC50 in data set [2] (setting [8]) is under 50 nM; in data set [4], under 250 nM.

On to `O=C1Nc2cc3[nH]nc(NC4CCOCC4)c3cc2CN1[C@@H]1CN(CC(F)(F)F)C[C@H]1c1ccccc1` [Compound 361], for which the IC50 was 50 to 250 nM in data set [2] (setting [8]) and under 250 nM in data set [4].

For the compound `Cc1cc(-c2n[nH]c3cc4c(cc23)CC([C@H](C)c2ccccc2)C(=O)N4)ccn1` (stereo partly drawn) [Compound 371], the IC50 in data set [2] (setting [8]) lay in the range of 50 to 250 nM; in data set [4], 250 to 1000 nM.

For `O=C(O)CCCc1ccc(N(CCCl)CCCl)cc1` [chlorambucil], in data set [6], the chemical stability result is recorded as “largely hydrolyzed”.

In the case of `CC(C)[N+](C)(CCOC(=O)C1c2ccccc2Oc2ccccc21)C(C)C` [propantheline], the plasma stability entry in data set [7] is “intermediate plasma stability”.

Regarding `CCCOc1cc(N)ccc1C(=O)OCCN(CC)CC` [propoxycaine], in data set [7], the plasma stability entry was “low plasma stability”.
